According to patent publication US11046699B2, “Pyrazolo-pyrimidin-amino-cycloalkyl compounds and their therapeutic uses” (RAPT THERAPEUTICS, INC., priority 2018, dated 2021):
Like-named read-outs stand apart in the source and are kept apart here.

Target: GCN2 (Homo sapiens, UniProt Q9P2K8)
Assay: GCN2 enzymatic endpoint assay: phosphorylation of GFP-eIF2α measured by TR-FRET (Lanthascreen)
Format: biochemical
How it was run: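 2 μM ATP, 80 nM GFP-eIF2α, RT, 90 min; EDTA stop. Tb-anti-phospho antibody TR-FRET read, 520/495 nm ratio.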

[1] = tested as described in Example 77, compound and/or hydrochloride, dihydrochloride or trifluoroacetic acid salt, read-out: IC 50 Activity

Chain of GCN2 (Q9P2K8 whole entry): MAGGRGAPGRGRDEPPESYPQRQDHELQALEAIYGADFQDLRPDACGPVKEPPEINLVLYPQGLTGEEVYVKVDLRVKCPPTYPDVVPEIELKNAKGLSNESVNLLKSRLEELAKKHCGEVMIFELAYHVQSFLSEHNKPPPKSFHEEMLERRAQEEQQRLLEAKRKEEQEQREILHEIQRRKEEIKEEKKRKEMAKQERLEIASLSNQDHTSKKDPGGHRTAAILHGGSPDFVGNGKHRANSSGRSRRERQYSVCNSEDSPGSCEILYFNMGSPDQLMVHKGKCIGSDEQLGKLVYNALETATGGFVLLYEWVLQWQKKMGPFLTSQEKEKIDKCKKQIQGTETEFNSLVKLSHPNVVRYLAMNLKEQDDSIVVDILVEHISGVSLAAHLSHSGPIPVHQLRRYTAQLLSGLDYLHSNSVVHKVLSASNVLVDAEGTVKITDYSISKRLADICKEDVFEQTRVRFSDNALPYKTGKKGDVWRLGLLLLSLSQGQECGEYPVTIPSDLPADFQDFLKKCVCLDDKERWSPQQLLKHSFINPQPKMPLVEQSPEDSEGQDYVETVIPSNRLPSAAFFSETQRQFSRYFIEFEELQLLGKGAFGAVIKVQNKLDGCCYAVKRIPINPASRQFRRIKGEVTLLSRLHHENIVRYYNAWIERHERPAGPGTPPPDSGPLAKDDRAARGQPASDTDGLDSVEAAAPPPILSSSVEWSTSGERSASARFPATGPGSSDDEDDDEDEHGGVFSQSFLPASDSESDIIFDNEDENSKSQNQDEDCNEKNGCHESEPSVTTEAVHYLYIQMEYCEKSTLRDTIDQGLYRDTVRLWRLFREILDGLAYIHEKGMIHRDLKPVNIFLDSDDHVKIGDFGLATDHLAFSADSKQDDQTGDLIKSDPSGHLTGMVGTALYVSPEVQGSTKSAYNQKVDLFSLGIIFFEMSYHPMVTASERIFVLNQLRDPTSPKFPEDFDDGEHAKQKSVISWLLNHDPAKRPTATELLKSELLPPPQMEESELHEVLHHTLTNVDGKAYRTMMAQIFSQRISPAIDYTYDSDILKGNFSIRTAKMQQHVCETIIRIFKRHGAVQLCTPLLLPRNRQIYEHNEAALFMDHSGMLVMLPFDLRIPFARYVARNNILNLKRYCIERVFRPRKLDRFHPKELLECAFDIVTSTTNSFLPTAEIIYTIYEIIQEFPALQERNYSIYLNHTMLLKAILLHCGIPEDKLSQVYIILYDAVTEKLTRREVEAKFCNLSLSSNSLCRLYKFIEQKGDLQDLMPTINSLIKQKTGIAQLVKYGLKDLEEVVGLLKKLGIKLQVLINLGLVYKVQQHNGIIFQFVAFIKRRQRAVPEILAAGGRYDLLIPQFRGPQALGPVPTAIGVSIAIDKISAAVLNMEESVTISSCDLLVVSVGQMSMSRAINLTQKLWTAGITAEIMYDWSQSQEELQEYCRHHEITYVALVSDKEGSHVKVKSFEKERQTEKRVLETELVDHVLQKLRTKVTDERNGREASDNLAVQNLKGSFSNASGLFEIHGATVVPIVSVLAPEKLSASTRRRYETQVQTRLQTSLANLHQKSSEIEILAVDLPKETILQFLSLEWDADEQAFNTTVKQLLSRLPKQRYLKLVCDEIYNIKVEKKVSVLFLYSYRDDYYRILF

| SMILES | IC50 [1] | IC50 (GCN2 biochemical IC50, 4 nM GCN2, 2 μM ATP, 80 nM GFP-eIF2α, 90 min RT, read-out: GCN2 activity) |
| --- | --- | --- |
| CC1(C(N)=O)CC[C@@H](Nc2ncc3c(Br)nn(-c4ccc(-c5ncco5)c(F)c4)c3n2)C1 (stereo partly drawn) [(3R)-3-[[3-bromo-1-(3-fluoro-4-oxazol-2-yl-phenyl)pyrazolo[3,4-d]pyrimidin-6-yl]amino]-1-methyl-cyclopentanecarboxamide] | < 0.025 µM | – |
| CNC(=O)[C@]1(C)CC[C@@H](Nc2ncc3c(Br)nn(-c4ccc(-c5ncco5)c(NC(=O)C5CCNCC5)c4)c3n2)C1 [N-[5-[3-bromo-6-[[(1R,3R)-3-methyl-3-(methylcarbamoyl)cyclopentyl]amino]pyrazolo[3,4-d]pyrimidin-1-yl]-2-oxazol-2-yl-phenyl]piperidine-4-carboxamide] | < 0.025 µM | – |
| CNC(=O)[C@]1(C)CC[C@@H](Nc2ncc3c(Br)nn(-c4cc(Cl)cc(C(CN)OC)c4)c3n2)C1 (stereo partly drawn) [(1R,3R)-3-[[1-[3-(2-amino-1-methoxy-ethyl)-5-chloro-phenyl]-3-bromo-pyrazolo[3,4-d]pyrimidin-6-yl]amino]-N,1-dimethyl-cyclopentanecarboxamide; 2,2,2-trifluoroacetic acid] | 0.025 to 0.2 µM | – |
| CNC(=O)[C@]1(C)CC[C@@H](Nc2ncc3c(Br)nn(-c4ccc(-c5nnc(C)s5)c(OCS(C)(=O)=O)c4)c3n2)C1 [(1R,3R)-3-[[3-bromo-1-[3-(methylsulfonyl-methoxy)-4-(5-methyl-1,3,4-thiadiazol-2-yl)phenyl]pyrazolo[3,4-d]pyrimidin-6-yl]amino]-N,1-dimethyl-cyclopentane-carboxamide] | 0.025 to 0.2 µM | – |
| O=C([C@@H]1CC[C@@H](Nc2ncc3c(Br)nn(-c4ccc5ncccc5c4)c3n2)C1)N1CCC(O)(CO)CC1 [((1R,3R)-3-((3-bromo-1-(quinolin-6-yl)-1H-pyrazolo[3,4-d]pyrimidin-6-yl)amino)cyclo-pentyl)(4-hydroxy-4-(hydroxymethyl)piperidin-1-yl)methanone] | 0.025 to 0.2 µM | – |
| CNC(=O)[C@]1(C)CC[C@@H](Nc2ncc3c(Br)nn(-c4ccc(-c5cccnc5)c(CN)c4)c3n2)C1 [(1R,3R)-3-[[1-[3-(aminomethyl)-4-(3-pyridyl)phenyl]-3-bromo-pyrazolo[3,4-d]pyrimidin-6-yl]amino]-N,1-dimethyl-cyclopentane-carboxamide] | 0.025 to 0.2 µM | – |
| C[C@@H]1CN(C(=O)[C@@H]2CC[C@@H](Nc3ncc4c(Br)nn(-c5ccc6ncccc6c5)c4n3)C2)C[C@H](C)O1 [((1R,3R)-3-((3-bromo-1-(quinolin-6-yl)-1H-pyrazolo[3,4-d]pyrimidin-6-yl)amino)cyclopentyl)((2S,6R)-2,6-dimethylmorpholino) methanone] | 0.2 to 0.5 µM | – |
| CNC(=O)[C@]1(C)CC[C@@H](Nc2ncc3c(Br)nn(-c4cc(C#N)cc(CNS(C)(=O)=O)c4)c3n2)C1 | 0.025 to 0.2 µM | – |
| CNC(=O)[C@]1(C)CC[C@@H](Nc2ncc3c(Br)nn(-c4ccc5c(c4)CCC(=O)N5CC(F)F)c3n2)C1 [(1R,3R)-3-[[3-bromo-1-[1-(2,2-difluoro-ethyl)-2-oxo-3,4-dihydroquinolin-6-yl]pyrazolo[3,4-d]pyrimidin-6-yl]amino]-N,1-dimethyl-cyclopentanecarboxamide] | 0.025 to 0.2 µM | – |
| CNC(=O)[C@]1(C)CC[C@@H](Nc2ncc3c(Br)nn(-c4cc(COC)c5ncccc5c4)c3n2)C1 [(1R,3R)-3-[[3-bromo-1-[8-(methoxymethyl)-6-quinolyl]pyrazolo[3,4-d]pyrimidin-6-yl]amino]-N,1-dimethyl-cyclopentane-carboxamide] | 0.025 to 0.2 µM | – |
| CNC(=O)[C@]1(C)CC[C@@H](Nc2ncc3c(Br)nn(-c4cc(C#N)cc(CCC5CNC5)c4)c3n2)C1 [(1R,3R)-3-[[1-[3-[2-(azetidin-3-yl)ethyl]-5-cyano-phenyl]-3-bromo-pyrazolo[3,4-d]pyrimidin-6-yl]amino]-N,1-dimethyl-cyclopentanecarboxamide] | 0.025 to 0.2 µM | – |
| CNC(=O)[C@]1(C)CC[C@@H](Nc2ncc3c(Br)nn(-c4cc(C(C)O)c5nccnc5c4)c3n2)C1 (stereo partly drawn) [(1R,3R)-3-[[3-bromo-1-[8-(1-hydroxy-ethyl)quinoxalin-6-yl]pyrazolo[3,4-d]pyrimidin-6-yl]amino]-N,1-dimethyl-cyclopentanecarboxamide] | 0.025 to 0.2 µM | – |
| CNC(=O)[C@]1(C)CC[C@@H](Nc2ncc3c(Br)nn(-c4cc([C@H](C)N)c5nccnc5c4)c3n2)C1 [(1R,3R)-3-[[1-[8-[(1S)-1-aminoethyl]quinoxalin-6-yl]-3-bromo-pyrazolo [3,4-d]pyrimidin-6-yl]amino]-N,1-dimethyl-cyclopentanecarboxamide] | 0.025 to 0.2 µM | – |
| COCCNC(=O)[C@@H]1CC[C@@H](Nc2ncc3c(Br)nn(-c4ccc5cnn(C)c5c4)c3n2)C1 [(1R,3R)-3-((3-bromo-1-(1-methyl-1H-indazol-6-yl)-1H-pyrazolo[3,4-d]pyrimidin-6-yl)amino)-N-(2-methoxyethyl)cyclopentane-1-carboxamide] | 0.2 to 0.5 µM | – |
| CNC(=O)[C@]1(CC(F)F)CC[C@@H](Nc2ncc3c(Br)nn(-c4cc(C#N)cc(OCC5CNC5)c4)c3n2)C1 [(1R,3R)-3-[[1-[3-(azetidin-3-ylmethoxy)-5-cyano-phenyl]-3-bromo-pyrazolo[3,4-d]pyrimidin-6-yl]amino]-1-(2,2-difluoroethyl)-N-methyl-cyclopentanecarboxamide] | 0.025 to 0.2 µM | – |
| Cc1nnc(-c2ccc(-n3nc(Br)c4cnc(N[C@@H]5CCC(C)(C(=O)N6C[C@@H](C)O[C@H](C)C6)C5)nc43)cc2)o1 (stereo partly drawn) [[(3R)-3-[[3-bromo-1-[4-(5-methyl-1,3,4-oxadiazol-2-yl)phenyl]pyrazolo[3,4-d]pyrimidin-6-yl]amino]-1-methyl-cyclopentyl]-[(2R,6R)-2,6-dimethylmorpholin-4-yl]methanone] | 0.025 to 0.2 µM | – |

| SMILES | IC50 [1] | IC50 (GCN2 biochemical IC50, 4 nM GCN2, 2 μM ATP, 80 nM GFP-eIF2α, 90 min RT, read-out: GCN2 activity) |
| --- | --- | --- |
| O=S(=O)(NC1CCOCC1)[C@@H]1CC[C@@H](Nc2ncc3c(Br)nn(-c4ccc5ncccc5c4)c3n2)C1 [(1R,3R)-3-((3-bromo-1-(quinolin-6-yl)-1H-pyrazolo[3,4-d]pyrimidin-6-yl)amino)-N-(tetrahydro-2H-pyran-4-yl)cyclopentane-1-sulfonamide] | 0.2 to 0.5 µM | – |
| CNC(=O)[C@]1(C)CC[C@@H](Nc2ncc3c(Br)nn(-c4cc(CN[S+](C)[O-])c5nccnc5c4)c3n2)C1 (stereo partly drawn) [(1R,3R)-3-[[3-bromo-1-[8-(methane-sulfinamidomethyl)quinoxalin-6-yl]pyrazolo[3,4-d]pyrimidin-6-yl]amino]-N,1-dimethyl-cyclopentane-carboxamide] | 0.025 to 0.2 µM | – |
| CN1CCC2(CCN(C(=O)[C@@H]3CC[C@@H](Nc4ncc5c(Br)nn(-c6cc(F)c7ncccc7c6)c5n4)C3)C2)C1=O (stereo partly drawn) [7-((1R,3R)-3-((3-bromo-1-(8-fluoroquinolin-6-yl)-1H-pyrazolo[3,4-d]pyrimidin-6-yl)amino)cyclopentane-1-carbonyl)-2-methyl-2,7-diazaspiro[4.4]nonan-1-one] | 0.025 to 0.2 µM | – |
| Cc1nnc(-c2ccc(-n3nc(Br)c4cnc(N[C@@H]5CC[C@@](C)(C(=O)N6CCP(C)(=O)CC6)C5)nc43)cc2)s1 | 0.025 to 0.2 µM | – |
| CNC(=O)[C@]1(C)CC[C@@H](Nc2ncc3c(Br)nn(-c4ccc(F)c(CCN)c4)c3n2)C1 [(1R,3R)-3-[[1-[3-(2-aminoethyl)-4-fluoro-phenyl]-3-bromo-pyrazolo[3,4-d]pyrimidin-6-yl]amino]-N,1-dimethyl-cyclopentane-carboxamide] | 0.025 to 0.2 µM | – |
| CNC(=O)[C@]1(C)CC[C@@H](Nc2ncc3c(Br)nn(-c4cc(F)cc([C@H](C)N)c4)c3n2)C1 | 0.025 to 0.2 µM | – |
| CC1(C(=O)NC2(C#N)CC2)CC[C@@H](Nc2ncc3c(Br)nn(-c4cc(F)c5ncccc5c4)c3n2)C1 (stereo partly drawn) [(3R)-3-[[3-bromo-1-(8-fluoro-6-quinolyl)pyrazolo[3,4-d]pyrimidin-6-yl]amino]-N-(1-cyanocyclopropyl)-1-methyl-cyclopentane-carboxamide] | < 0.025 µM | – |
| CNC(=O)[C@]1(C)CC[C@@H](Nc2ncc3c(Br)nn(-c4ccc(-c5ncco5)c(C(C)(C)C#N)c4)c3n2)C1 [(1R,3R)-3-[[3-bromo-1-[3-(1-cyano-1-methyl-ethyl)-4-oxazol-2-yl-phenyl]pyrazolo[3,4-d]pyrimidin-6-yl]amino]-N,1-dimethyl-cyclopentanecarboxamide] | 0.025 to 0.2 µM | – |
| CNC(=O)C1(C)CC[C@@H](Nc2ncc3c(Br)nn(-c4ccc5nc(OC)ccc5c4)c3n2)C1 (stereo partly drawn) [(3R)-3-((3-bromo-1-(2-methoxyquinolin-6-yl)-1H-pyrazolo[3,4-d]pyrimidin-6-yl)amino)-N,1-dimethylcyclopentane-1-carboxamide] | 0.025 to 0.2 µM | – |
| CNC(=O)CC1CC(Nc2ncc3c(Br)nn(-c4cc(CCN)c5ccccc5c4)c3n2)C1 (stereo not shown) [2-[3-[[1-[4-(2-aminoethyl)-2-naphthyl]-3-bromo-pyrazolo[3,4-d]pyrimidin-6-yl]amino]cyclobutyl]-N-methyl-acetamide; 2,2,2-trifluoroacetic acid] | 0.025 to 0.2 µM | – |
| CNC(=O)[C@]1(C)CC[C@@H](Nc2ncc3c(Br)nn(-c4cc(Cl)cc(C(=O)N(C)C)c4)c3n2)C1 [3-[3-bromo-6-[[(1R,3R)-3-methyl-3-(methylcarbamoyl)cyclopentyl]amino]pyrazolo[3,4-d]pyrimidin-1-yl]-5-chloro-N,N-dimethyl-benzamide] | 0.025 to 0.2 µM | – |
| CNC(=O)[C@]1(C)CC[C@@H](Nc2ncc3c(Br)nn(-c4ccc5nc(N)ncc5c4)c3n2)C1 | 0.025 to 0.2 µM | – |
| CNC(=O)[C@]1(C)CC[C@@H](Nc2ncc3c(Br)nn(-c4ccc5nccnc5c4)c3n2)C1 (single isomer, unassigned) [Example 11] | – | 0.025 to 0.2 µM |
| CN1CCN(C(=O)[C@@H]2CC[C@@H](Nc3ncc4c(Br)nn(-c5cc(C#N)c6ncccc6c5)c4n3)C2)CC1=O [6-(3-bromo-6-(((1R,3R)-3-(4-methyl-3-oxo-piperazine-1-carbonyl)cyclopentyl)amino)-1H-pyrazolo[3,4-d]pyrimidin-1-yl)quinoline-8-carbonitrile] | 0.025 to 0.2 µM | – |
| CNC(=O)[C@]1(C)CC[C@@H](Nc2ncc3c(Br)nn(-c4ccc5c(c4)OCC(=O)N5CC(F)(F)F)c3n2)C1 [(1R,3R)-3-[[3-bromo-1-[3-oxo-4-(2,2,2-trifluoroethyl)-1,4-benzoxazin-7-yl]pyrazolo [3,4-d]pyrimidin-6-yl]amino]-N,1-dimethyl-cyclopentanecarboxamide] | 0.025 to 0.2 µM | – |
